Assay results reported in patent US8846704B2, “Thiopyrimidine-based compounds and uses thereof” (YM Biosciences Austraila Pty Ltd, priority 2007, dated 2014).

Target: T1, FLT-3 tyrosine kinase (Homo sapiens, UniProt P36888)
T1 construct: purchased Upstate Cell Signalling Solutions, CA, USA 14-500
T1 sequence (P36888 27-993): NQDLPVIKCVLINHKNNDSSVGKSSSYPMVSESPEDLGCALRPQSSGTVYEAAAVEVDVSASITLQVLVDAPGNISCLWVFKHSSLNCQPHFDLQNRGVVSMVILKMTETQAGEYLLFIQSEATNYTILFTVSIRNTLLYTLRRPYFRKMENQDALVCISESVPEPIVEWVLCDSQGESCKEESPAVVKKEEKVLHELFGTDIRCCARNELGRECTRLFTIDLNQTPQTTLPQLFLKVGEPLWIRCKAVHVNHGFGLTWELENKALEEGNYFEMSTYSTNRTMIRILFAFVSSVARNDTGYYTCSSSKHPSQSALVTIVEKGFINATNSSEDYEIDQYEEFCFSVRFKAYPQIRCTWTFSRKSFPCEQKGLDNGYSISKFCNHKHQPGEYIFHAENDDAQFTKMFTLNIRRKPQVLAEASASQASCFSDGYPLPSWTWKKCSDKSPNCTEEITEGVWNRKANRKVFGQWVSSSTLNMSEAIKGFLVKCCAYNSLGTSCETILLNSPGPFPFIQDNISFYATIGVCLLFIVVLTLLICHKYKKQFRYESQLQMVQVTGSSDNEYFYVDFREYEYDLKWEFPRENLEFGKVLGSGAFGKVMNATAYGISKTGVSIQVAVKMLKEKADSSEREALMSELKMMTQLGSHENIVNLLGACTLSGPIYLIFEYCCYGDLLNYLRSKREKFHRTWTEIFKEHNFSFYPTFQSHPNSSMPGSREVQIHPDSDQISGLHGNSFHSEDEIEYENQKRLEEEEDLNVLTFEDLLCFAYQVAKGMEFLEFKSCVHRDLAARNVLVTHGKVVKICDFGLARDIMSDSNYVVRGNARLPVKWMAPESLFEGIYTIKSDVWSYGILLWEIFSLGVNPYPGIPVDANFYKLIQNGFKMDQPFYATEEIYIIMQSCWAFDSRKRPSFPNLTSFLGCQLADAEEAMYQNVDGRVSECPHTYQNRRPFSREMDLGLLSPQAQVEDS
Assay: Alphascreen tyrosine kinase enzyme assay, FLT-3
Format: biochemical
Conditions: FLT3; read-out: FMS, FLT3, or HCK IC50_nM (FLT3)
Experimental: For screening purposes, compounds (in 100% DMSO) were warmed at 37 degrees for at least 20 minutes before use. A […] stock was initially made in assay buffer, where the final concentration of DMSO was 0.3%. The stocks were then diluted in 384 well Optiplates (Packard) where the final concentration of the compound was […].
FLT-3 tyrosine kinase enzyme was purchased from Upstate Cell Signalling Solutions, CA, USA (flt-3 catalog #: 14-500).
Kinase assays were performed in 384 well Optiplates (Packard) using an Alphascreen Protein Tyrosine Kinase PY100 detection kit The compounds were pre-incubated with affinity purified PTK domain in the presence of phosphotyrosine assay buffer (10 mM HEPES, pH 7.5, 100 mM MgCl2, 25 mM NaCl, […] and 0.1% Tween 20) for 20 minutes. The compounds were then incubated with substrate in the presence of ATP. The substrate used was susbtrate-1 with the sequence biotin-EGPWLEEEEEAYGWMDF-NH2 [SEQ. ID. NO. 13] (final concentration […]). For HCK 80 μm ATP was used and incubated for 60 minutes. Alphascreen phosphotyrosine acceptor beads followed by streptavidin donor beads at a concentration of 1/100 in stop buffer were added to each well under subdued light and incubated for 2-3 hours., The Alphascreen plates were read on a Packard Fusion Alpha instrument.

SMILES | IC50 [µM]
N#CCNCc1cccc(Sc2ccnc(Nc3ccc(N4CCOCC4)cc3)n2)c1 [Compound 68, 2-(3-(2-(4-morpholinophenylao)pyrimidin-4-ylthio)benzylao)acetonitrile] | < 0.5
OCc1ccc(Sc2ccnc(Nc3ccc(N4CCOCC4)cc3)n2)cc1 [Compound 67, (4-(2-(4-morpholinophenylao)pyrimidin-4-ylthio)phenyl)methanol] | < 0.1
OCc1cccc(Sc2ccnc(Nc3ccc(N4CCOCC4)cc3)n2)c1 [Compound 62, (3-(2-(4-Morpholinophenylamino)pyrimidin-4-ylthio)phenyl)methanol] | < 0.1
